The values below are quoted from earlier work in paper PMC10814857, “Functional Classification and Interaction Selectivity Landscape of the Human SH3 Domain Superfamily” (Cells, 2024).

Where two headings read alike, the source gives them in different places.

For one data set, the target named is NCK1-1 SH3 domain. To be noted: NCK1-1, HSQC, Table S4; ref [64]; cited from earlier work.
Another data set concerns the target NCK1-2 SH3 domain. As to conditions: NCK1-2, HSQC, Table S4; ref [64]; cited from earlier work. As for the experimental part:
(§1) page 6: […][…] […] PAK2 […] PXXXPR PXXXPR 1.05 ITC [34] TRSVI ITSN1-2 Synthetic […] Exceptional [W/F][R/W]xSx[A/ 53 ITC [29] peptide G][F/Y][L/V]xGP[ W/L] NCK1-2 N-WASP GP[…] … 147 HSQC [64] VA[…] 199 PLCG1 SOS1 AAPV[…] … 0.20mM SPR [75] AADS[…] 0.40mM AAES[…] 0.70mM AAIA[…] 0.28mM BAIAP2L1 EspFUR45 IPP[…] … 0.5 nM ITC [76] (IRTKS) 9 SORBS2- Synthetic […] Exceptional XRXGXAYLXYVX 38 ITC [29] 1 peptide Synthetic RL[…](L/P) ...

The target in data set [1] is FYN SH3 domain. Details: method as in ref [20] (a number printed in a supplementary file, which may have a reference list of its own: not looked up in the article's list). As to conditions: NMR, Table S4, ref [20]; cited from earlier work.
Data set [2] has as its target FYN SH3 domain. More on the design: method as in ref [20] (a number printed in a supplementary file, which may have a reference list of its own: not looked up in the article's list). As to conditions: CD, Table S4, ref [20]; cited from earlier work.
For data set [3], the target named is FYN SH3 domain. More on the design: method as in ref [20] (a number printed in a supplementary file, which may have a reference list of its own: not looked up in the article's list). To be noted: ITC, Table S4, ref [20]; cited from earlier work.
Another data set deals with HCK SH3 domain. To be noted: SPR, Table S4, ref [72]; cited from earlier work.
The target of data set [4] is FYN SH3 domain. As to conditions: SPR, Table S4, ref [72]; cited from earlier work.
In a further data set the target is ITSN1-2 SH3 domain. To be noted: ITSN1-2, ITC, Table S4; ref [29]; cited from earlier work. On the procedure: (§2) page 6: […] […] […] PAK2 […] PXXXPR PXXXPR 1.05 ITC [34] TRSVI ITSN1-2 Synthetic […] Exceptional [W/F][R/W]xSx[A/ 53 ITC [29] peptide G][F/Y][L/V]xGP[ W/L] NCK1-2 N-WASP GP[…] … 147 HSQC [64] VA[…] 199 PLCG1 SOS1 AAPV[…] … 0.20mM SPR [75] AADS[…] 0.40mM AAES[…] 0.70mM AAIA[…] 0.28mM BAIAP2L1 EspFUR45 IPP[…] … 0.5 nM ITC [76] (IRTKS) 9 SORBS2- Synthetic […] Exceptional XRXGXAYLXYVX 38 ITC [29] 1 peptide Synthetic RL[…](L/P) ...

The target in the next data set is LCK SH3 domain. As to conditions: FL, Table S4, ref [74]; cited from earlier work.
A further data set concerns the target CD2AP-1 (CMS) SH3 domain. As to conditions: SPR, Table S4, ref [50, 82]; cited from earlier work. From the text: page 7: […] E CD2AP-1 CD2 […] PX(P/A)XXR PXXXPR 100 SPR [50, (CMS) G 82] SH3KBP1- 1 (CIN85) 1 The underlined residues in the second column represent motifs associated with the published consensus PRMs, while the residues highlighted in green represent the proposed consensus PRM identified in the current study. 2 CD: Circular Dichroism Spectroscopy FL: fluorescence-based titrations; HSQC: Heteronuclear Single Quantum Coherence; ITC: Isothermal titration calorimetry; MST: microscale thermophoresis 7
(In general: SPR reads the build-up and loss of mass on a sensor chip optically.)

A further data set deals with AMPH SH3 domain. To be noted: g-radiation, Table S4, ref [80]; cited from earlier work. On the procedure: as §2
Another data set concerns the target SPTAN1 SH3 domain. Details: method as in ref [63] (a number printed in a supplementary file, which may have a reference list of its own: not looked up in the article's list). As to conditions: SPTAN1, FL, Table S4; ref [63]; cited from earlier work.
The target in another data set is STAC1 SH3 domain. As to conditions: STAC1, ITC, Table S4; ref [59]; cited from earlier work. On the procedure:
as §2

For the next data set, the target named is STAC2 SH3 domain. As to conditions: STAC2, ITC, Table S4; ref [59]; cited from earlier work. As for the experimental part: as §2
For a further data set, the target named is NCK1-3 SH3 domain. As to conditions: NCK1-3, HSQC, Table S4; ref [64]; cited from earlier work. On the procedure: as §1
The target of the next data set is SNX9 SH3 domain. To be noted: cited from earlier work.
The target of data set [5] is SH3PXD2B-1/2 SH3 domains. More on the design: method as in ref [68] (a number printed in a supplementary file, which may have a reference list of its own: not looked up in the article's list). To be noted: SH3PXD2B-1/2, MST, Table S4; ref [68]; cited from earlier work.
In data set [6] the target is SH3PXD2B-1/2 SH3 domains. More on the design: method as in ref [68] (a number printed in a supplementary file, which may have a reference list of its own: not looked up in the article's list). To be noted: SH3PXD2B-1/2, FL, Table S4; ref [68]; cited from earlier work.
The target of a further data set is CRK-1 SH3 domain. Details: method as in ref [70] (a number printed in a supplementary file, which may have a reference list of its own: not looked up in the article's list). To be noted: CRK-1, ITC, Table S4; ref [70]; cited from earlier work.
The target of a further data set is p85A SH3 domain. Details: method as in ref [62] (a number printed in a supplementary file, which may have a reference list of its own: not looked up in the article's list). To be noted: FL, Table S4, ref [62]; cited from earlier work.
The next data set has as its target STAM2 SH3 domain. As to conditions: STAM2, FL, Table S4; ref [52]; cited from earlier work. On the procedure:
as §2

The target in another data set is PACSIN1 SH3 domain. Details: method as in ref [61] (a number printed in a supplementary file, which may have a reference list of its own: not looked up in the article's list). As to conditions: PACSIN1, HSQC, Table S4; ref [61]; cited from earlier work.
The target in a further data set is PACSIN2 SH3 domain. Details: method as in ref [61] (a number printed in a supplementary file, which may have a reference list of its own: not looked up in the article's list). As to conditions: PACSIN2, HSQC, Table S4; ref [61]; cited from earlier work.
Another data set has as its target PACSIN3 SH3 domain. More on the design: method as in ref [61] (a number printed in a supplementary file, which may have a reference list of its own: not looked up in the article's list). As to conditions: PACSIN3, HSQC, Table S4; ref [61]; cited from earlier work.
The target in another data set is EPS8L1 SH3 domain. Details: method as in ref [7] (a number printed in a supplementary file, which may have a reference list of its own: not looked up in the article's list). As to conditions: EPS8L1, ITC, Table S4; ref [7]; cited from earlier work.
Data set [7] has as its target BAIAP2L1 (IRTKS) SH3 domain. To be noted: ITC, Table S4, ref [76]; cited from earlier work. As for the experimental part: as §1

One may read the Kd as the free concentration of one partner at which half of the binding sites on the other are occupied at equilibrium, for simple one-to-one binding. Regarding GPPPPPARGRGA [published N-WASP peptide], the dissociation constant (Kd) at NCK1-1 SH3 domain was greater than 1000 µM; on NCK1-2 SH3 domain, 147 µM.

With PPRPLPVAPGSSKT [published peptide P2L], the results for the Kd on FYN SH3 domain [1], at FYN SH3 domain [2] and on FYN SH3 domain [3] were 50 µM, 28 µM and 16 µM, respectively.

As for PVRPQVPLRPMT [published Nef peptide], the Kd on HCK SH3 domain is 91 µM; at FYN SH3 domain [4], 202 µM.

With “WRDSSGYVMGPW [published synthetic peptide (ITSN1-2 ligand)]”, on ITSN1-2 SH3 domain, the Kd was 53 µM.

Take “ATLDPGMPTPPLPPRPANLG [published Tip peptide]”: the Kd at LCK SH3 domain was 16.8 µM.

“QKGPPLPRPRVQPKPPHG [published CD2 peptide]”: the dissociation constant (Kd) at CD2AP-1 (CMS) SH3 domain was 100 µM.

As for PSRPNR [published Dynamin-I peptide], the equilibrium dissociation constant (Kd) on AMPH SH3 domain was 0.19 µM.

Take “ASYPPVPPP [published Peptide41 (SPTAN1 ligand)]”: at SPTAN1 SH3 domain, the equilibrium dissociation constant (Kd) was 160 µM.

Regarding “NVNEVKDPYPSADFPGDDEEDEPEIPLSPRPRPLAELQLKEKAVPIPE [published CaV1.1 peptide]”, the Kd was 0.78 µM at STAC1 SH3 domain and 1.85 µM at STAC2 SH3 domain.

In the case of VAVPPPPPNRMY [published N-WASP peptide], the equilibrium dissociation constant (Kd) on NCK1-2 SH3 domain was 199 µM; at NCK1-3 SH3 domain, 1 µM.

In the case of AERLIPRRPAPPVPVPARIPSPR, on SNX9 SH3 domain, the dissociation constant (Kd) is 0.3 µM.

Turning to “GSHMGDAKQRSPKMRQRPPPRRDMTIPRGLNLPKPPIPPQVE [published SH3PXD2B peptide]”, the values for the equilibrium dissociation constant (Kd) at SH3PXD2B-1/2 SH3 domains [5] and at SH3PXD2B-1/2 SH3 domains [6] were 15 µM and 11 µM, respectively.

Turning to “DNSPPPALPPKKRQSAPS [published C3G peptide]”, on CRK-1 SH3 domain, the dissociation constant (Kd) was roughly 2 µM.

Regarding “RKLPPRPSK [published synthetic peptide (p85A ligand)]”, the Kd at p85A SH3 domain was 9.1 µM.

Take TPMVNRENKPP [published UBPY peptide]: on STAM2 SH3 domain, the Kd was 27 µM.

As for “TKGPAPNPPPVLKV [published TRPV4 peptide]”, the Kd at PACSIN1 SH3 domain was 51.6 µM; at PACSIN2 SH3 domain, 12.7 µM; at PACSIN3 SH3 domain, 68.6 µM.

In the case of PPVPNPDYEPIR [published CD3ε peptide], the Kd at EPS8L1 SH3 domain is 24 µM.

“IPPAPNWPAPTPP [published peptide EspFUR45]”: the Kd in data set [7] is 0.0005 µM.
